From patent US20240108738A1, “BICYCLIC PEPTIDE LIGANDS SPECIFIC FOR NK CELLS” (Bicycle Tx Limited, priority 2021, published 2024) come the findings set out here.

For one experiment, the target named is human FcγRIII (CD16a) (Homo sapiens, UniProt P08637). The experiment can be described thus: FcγRIII (CD16a) SPR (Method A). Type of experiment: binding. The protocol:
SPR experiments were performed to determine ka (M^−1s^−1), kd (s^−1), KD (nM) values (where measurable) of various bicyclic peptides to immobilized human FcγRIII proteins.
For analysis of peptide binding, a Biacore 3000 or T200 instrument was used with a CM5 chip (GE Healthcare). Streptavidin was immobilized on the chip using standard amine-coupling chemistry at 25° C. with HBS-N (10 mM HEPES, 0.15 M NaCl, pH 7.4) as the running buffer. Briefly, the carboxymethyl dextran surface was activated with a 7 min injection of a 1:1 ratio of 0.4 M 1-ethyl-3-(3-dimethylaminopropyl) carbodiimide hydrochloride (EDC)/0.1 M N-hydroxy succinimide (NHS) at a flow rate of 10 μl/min. For capture of streptavidin, the protein was diluted to 0.2 mg/ml in 10 mM sodium acetate (pH 4.5) and captured by injecting 120 μl of onto the activated chip surface. Residual activated groups were blocked with a 7 min injection of 1 M ethanolamine (pH 8.5) and biotinylated FcγRIII captured to a level of 400-1,400 RU. Buffer was changed to PBS/0.05% Tween 20 and a dilution series of the peptides was prepared in this buffer with a final DMSO concentration of 0.5%. […] The SPR analysis was run at 25° C. at a flow rate of 50 μl/min with 60 seconds association and dissociation between 60 and 200 seconds. Data were corrected for DMSO excluded volume effects. […]

The test system of the next experiment is human CD16a V176 variant. In words: IgG competition assay (AlphaScreen), V variant. The format is binding. The following applies: N-terminally biotinylated CD16a V176 10 nM, mouse IgG2a acceptor beads. On the technique in general: In Alpha technology, singlet oxygen from a donor bead excites a nearby acceptor bead.

human FcγRIII (CD16a), sequence (P08637 17-254): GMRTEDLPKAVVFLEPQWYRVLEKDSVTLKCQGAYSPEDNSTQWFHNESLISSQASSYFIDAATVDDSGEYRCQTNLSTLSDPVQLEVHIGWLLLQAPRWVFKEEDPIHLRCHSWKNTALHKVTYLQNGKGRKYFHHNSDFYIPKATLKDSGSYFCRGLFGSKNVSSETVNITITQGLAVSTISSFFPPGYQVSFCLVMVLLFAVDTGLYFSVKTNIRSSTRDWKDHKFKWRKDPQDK

For the compound `C#CCCC(=O)NCCCC[C@H](NC(=O)[C@H](C)NC(=O)[C@@H]1CSCc2nc3nc(n2)CSC[C@H](NC(=O)[C@@H]2CCCN2C(=O)CNC(=O)[C@H](CC(C)C)NC(=O)[C@H](CCC(=O)O)NC(=O)[C@H](CCC(=O)O)NC(=O)[C@H](CC(C)C)NC(=O)CNC(=O)[C@H](C(C)C)NC(=O)[C@@H](NC(=O)[C@H](C)N)CSC3)C(=O)N[C@@H](CO)C(=O)N[C@@H](CC(=O)O)C(=O)N[C@@H](CC(C)C)C(=O)N1)C(N)=O` [BCY13886, A-(SEQ ID NO: 62)-A-[K(PYA)]], binding at human FcγRIII (CD16a) was put at a Kd of 2.2 µM. The half-inhibitory concentration (IC50) (usually the concentration that gives 50% inhibition) in the experiment on human CD16a V176 variant was found to be 3190 nM.
